1 compound from US20130058903A1, “Stem-Cell Material and Method of Use” (priority 2009, published 2013) can be followed below.

One test relates to STAT3. The experiment in a line: Western blot of STAT3 phosphorylation in C2C12 myocytes. Format: cell-based. As to conditions: C2C12 pretreated 2 hours, then MSC-CM for 30 min. Here is the method:
FIG. 8: Trophic actions of MSCs stimulate JAK/STAT3 signaling in cultured skeletal myocytes. C2C12 myocytes were plated in 6-well plates (10^5 cells per well). After overnight plating, cells were exposed to the indicated conditioned medium. A: Western blot assays of C2C12 cells exposed to MSC-CM for 5 min, 30 min, 6 hr, and 24 hr. B: In situ immunostaining of control medium- and MSC-CM-treated C2C12 cells (30 min incubation) using a p-STAT3 antibody (red) and β-actin antibody (green). Alexa647- and FITC-conjugated secondary antibodies were used. Nuclei were stained with DAPI. C: Western blot assays comparing the effects of porcine MSC-CM, a human embryonic kidney cell line (HEK293) CM, IL-6, IL-11, and LIF on STAT3 phosphorylation in C2C12 myocytes 30 min after treatment. Fifty ng/ml recombinant proteins were used. D: CT for human MSC IL-6-type cytokines. The CT for the house-keeping gene β2-microglobulin and GAPDH are ˜17 and ˜15, respectively.
FIG. 9: gp130/STAT3 signaling stimulates growth factor expression in cultured skeletal myocytes. C2C12 myocytes were treated with […] of a gp130 antibody (R&D Systems; #AF468) or control IgG for one hour at 37° C. The IgG isotype antibody was used as a negative control. Cells were then briefly rinsed and treated with MSC-CM for 30 min to assess STAT3 activation or 3 days for growth factor production. […]
(A western blot detects proteins with antibodies after separation by electrophoresis.)

Another test deals with JAK/STAT3 signaling. The experiment in a line: Extracardiac MSC therapy with WP1066 (echocardiography, ELISA). Format: in vivo, hamster. Here is the method:
FIG. 14: WP1066 inhibits JAK/STAT3 signaling and abrogates MSC-mediated cardiac repair. […] Cells were pretreated with WP1066 at the indicated dosages for 2 hours, following which cells were stimulated with MSC-CM for 30 min. Western blot assays were performed to determine STAT3 activation. B: The extracardiac MSC therapy was carried out as described previously (54). The four treatment groups (n=5 per group) were: WP1066, drug vehicle (PEG), MSC plus WP1066, and MSC plus drug vehicle (MSC+PEG). qRT-PCR assays of myocardial ANP and BNP expression (n=4 per group) after one month were presented. ANOVA was performed to assess statistical significance. *P<0.05 vs. PEG.
FIG. 15: WP1066 blocks MSC-mediated improvement in cardiac function. Cardiac function was determined by blind-folded echocardiography after MSC administration. A: Representative M-mode recording for the four animal groups at 4 weeks. B: LVEF at 2 and 4 weeks after MSCs. ANOVA was performed to assess statistical significance. *P<0.05 vs. PEG; †P<0.05 vs. WP1066; #P<0.05 vs. pre-injection.
FIG. 16: Inhibition of JAK/STAT3 signaling abolishes MSC-induced tissue growth factor levels. Soluble fractions of total hamstring extracts (panel A) and plasma samples (panel B) were assayed using rodent-specific HGF and VEGF ELISA kits (n=4 per group). Tissue growth factor concentrations were expressed as ng per mg soluble proteins. ANOVA was performed to assess statistical significance. *P<0.05 vs. PEG; †P<0.05 vs. WP1066; #P<0.05 vs. MSC+WP1066.
Background: ELISA stands for enzyme-linked immunosorbent assay.

SMILES strings stand for the structures.

For `C[C@H](NC(=O)/C(C#N)=C/c1cccc(Br)n1)c1ccccc1` [WP1066], the STAT3 phosphorylation entry with STAT3 is recorded as “Inhibitory effect”. Further, in the test with JAK/STAT3 signaling (2 and 4 weeks after MSCs), the “MSC-mediated improvement in cardiac function (LVEF)” value is reported as “blocks”. The “MSC-induced tissue growth factor levels (HGF, VEGF)” value in the test with JAK/STAT3 signaling (hamstring extracts and plasma) is “abolishes”. The MSC-mediated cardiac repair entry in the test on JAK/STAT3 signaling (myocardial ANP and BNP expression after one month) was “abrogates”.
